Measurements reported in the supplement of paper PMC7801607.
pIC50: −log10 of the molar value.

Columns and labels:
[1] = system: Plasmodium falciparum Dd2 asexual blood stage
[2] = system: Plasmodium falciparum NF54 stage IV/V gametocytes
Experimental: (§1)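 Dose-response IC50s: P. falciparum NF54 asexual (pLDH, 72 h; 6 means >6 µM), Dd2 asexual (SYBR Green I, 72 h, 1536-well; 5 means >5 µM), NF54 stage IV/V gametocytes (luciferase 48 h, ATP 24 h, PrestoBlue 48 h), P. berghei liver stage in HepG2-A16-CD81 (luciferase, 48 h; 5 means >5 µM), HepG2 CC50 (CellTiter-Glo; 5 means >5 µM).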

[3] = system: Plasmodium berghei ANKA liver stage in HepG2-A16-CD81
[4] = system: Plasmodium falciparum NF54 asexual blood stage
[5] = system: HepG2-A16-CD81; assay: CC50; higher = less toxic
Experimental: as §1

[6] = system: Plasmodium falciparum NF54 stage IV/V gametocytes; remark: listed apart in the source
Experimental: as §1

Row | SMILES | pIC50 [1] | IC50 (luciferase reporter) [2] | pIC50 [3] | pIC50 [4] | CC50 [5] | IC50 (ATP bioluminescence) [6]
1 | CCOc1ccc(C(=O)NCCc2ccccc2)cc1 | < 5.30 | 11400 nM |  |  |  | 
2 | CCN(CC)CCn1c(=N)n(CC(O)COc2ccc(Cl)cc2Cl)c2ccccc21 (configuration not stated) | 6.10 | 3800 nM | < 5.30 | 6.17 | > 5000 nM | 350 nM
3 | Cc1nc2ccc(Oc3ccccc3)cc2c2c1CCN2CCc1ccccc1 | < 5.30 | 46300 nM |  | 5.52 |  | 1130 nM
4 | Oc1c(C(Nc2nc3ccccc3s2)c2ccc(OC(F)F)cc2)ccc2cccnc12 (configuration not stated) | 5.50 | 5400 nM |  | 5.78 |  | 
5 | Cc1[nH]c2ccccc2c1CCNCc1ccc(/C=C/C(=O)NO)cc1 | 8.15 |  | 7.25 | 7.23 | 141 nM | 
6 | CN1CCN(Cc2ccc(-c3cnc4[nH]cc(-c5ccc6[nH]ccc6c5)c4c3)cc2)CC1 | 5.72 |  | 5.60 | 5.86 | > 5000 nM | 1660 nM
7 | Nc1nc(Nc2ccc3nc(-c4ccc(F)cc4)cc(N)c3c2)cc(-c2ccccc2)n1 | 7.26 | 152 nM | < 5.30 | 7.31 | > 5000 nM | 79.9 nM
8 | O=C(/C(=C/c1ccc(Cl)cc1Cl)n1ccnc1)c1ccc(Cl)cc1 | 5.48 | 7080 nM |  | 5.58 |  | 824 nM
9 | CCCCC(CC)CNC(=N)NC(=N)NCCCCCCNC(=N)NC(=N)NCC(CC)CCCC (configuration not stated) | 7.64 | 1030 nM | 5.66 | 6.96 | 4140 nM | 824 nM
10 | O=C(Nc1ccc(F)cc1)c1nn(-c2ccccc2)c(=O)cc1Cl | < 5.30 | 30600 nM |  |  |  | 
11 | CCC(C)NCC(O)Cn1c2ccc(Cl)cc2c2cc(Cl)ccc21 (configuration not stated) | 7.29 | 7640 nM | < 5.30 | 6.42 | > 5000 nM | 2910 nM
12 | CC(C)/N=c1\cc2n(-c3ccc(Cl)cc3)c3ccccc3nc-2cc1Nc1ccc(Cl)cc1 | 5.55 |  | < 5.30 | 6.06 | > 5000 nM | 
13 | CCc1nc(N)nc(N)c1C#CC(C)c1cc(OC)cc(-c2ccncc2)c1 (configuration not stated) | 5.76 |  | 8.37 | 8.77 | > 5000 nM | 
14 | N=c1n(CCN2CCCCC2)c2ccccc2n1CC(O)COc1ccc(Cl)cc1Cl (configuration not stated) | 6.08 | 3820 nM | 5.55 | 5.97 | > 5000 nM | 340 nM
